Values quoted from earlier work, collected in US10773080B2, “External trigeminal nerve stimulation for the acute non-invasive treatment of migraine attacks” (Cefaly Technology Sprl, priority 2017, dated 2020).

Tests used:
[1] = tested on: migraine; details: literature data; for Pain freedom at 2 h: percentage of patients
[2] = tested on: migraine; details: in vivo

Row | Structure (SMILES) | Nausea freedom at 2 h ([1]; irrespective of MBS) [%] | Phonophobia freedom at 2 h ([1]; irrespective of MBS) [%] | Photophobia freedom at 2 h ([1]; irrespective of MBS) [%] | Vomiting freedom at 2 h ([1]; irrespective of MBS) [%] | At least one treatment-emergent adverse effect [1] [%] | Pain relief at 2 h [1] [%] | Use of rescue medication between 2 h and 24 h [1] [%] | Pain freedom at 2 h [1] [%] | Sustained pain freedom at 24 h [1] [%] | Mean pain score reductions at two hours [2] [%] | Reduction in mean pain VAS scores at one hour [2] [%]
1 | CN1CCC(C(=O)c2cccc(NC(=O)c3c(F)cc(F)cc3F)n2)CC1 [[B], Lasmiditan] | ~26 | ~30 | ~38 | ~5 | 84 | 65 | 42 | 28 | – | – | –
2 | C[C@@H]1[C@H](c2ccccc2)C[C@H](NC(=O)c2cnc3c(c2)C[C@@]2(C3)C(=O)Nc3ncccc32)C(=O)N1CC(F)(F)F [[F], Ubrogepant] | 70.6 | 60.8 | 54.9 | – | 29.4 | 58.8 | – | 25.5 | 21.6 | – | –
3 | O=C(O)Cc1ccccc1Nc1c(Cl)cccc1Cl [diclofenac] | – | – | – | – | – | – | – | – | – | 50.5 | 26.8
4 | CNS(=O)(=O)Cc1ccc2[nH]cc(CCN(C)C)c2c1 [sumatriptan] | – | – | – | – | – | – | – | – | – | 40.0 | 17.1
